# In BindingDB's records for doi:10.7270/Q2DF6PMF (Nmmlsc, 2007):
# Target: T1, N-formyl peptide receptor 2 (Homo sapiens, UniProt P25090)
# T1 sequence (P25090 whole entry): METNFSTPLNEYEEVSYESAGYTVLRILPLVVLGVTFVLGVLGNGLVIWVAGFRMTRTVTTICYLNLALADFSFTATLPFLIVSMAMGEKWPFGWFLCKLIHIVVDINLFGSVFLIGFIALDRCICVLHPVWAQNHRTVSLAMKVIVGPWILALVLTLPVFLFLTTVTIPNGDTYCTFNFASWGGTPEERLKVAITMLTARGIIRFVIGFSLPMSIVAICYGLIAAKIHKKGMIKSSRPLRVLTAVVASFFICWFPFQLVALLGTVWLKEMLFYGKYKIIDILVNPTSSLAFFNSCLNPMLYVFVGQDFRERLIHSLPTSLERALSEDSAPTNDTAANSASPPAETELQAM
# Test: FPRL1 binding inhibitor potency, dose response, cell-based, FPR counter-screen, fluorescent ligand (AID 520)
IC50 [µM],Ki [µM],SMILES
> 66.7,–,"COCCN1Cc2cccc(C(=O)NCc3ccc4c(c3)OCO4)c2C1=O [N-(1,3-benzodioxol-5-ylmethyl)-2-(2-methoxyethyl)-3-oxoisoindoline-4-carboxamide]"
> 66.7,> 40.3,"COCCCN1C(=O)C(=O)C(C(=O)c2ccccc2)C1c1ccc2c(c1)OCO2 (stereo not drawn) [(4E)-5-(1,3-benzodioxol-5-yl)-1-(3-methoxypropyl)-4-[oxidanyl(phenyl)methylidene]pyrrolidine-2,3-dione]"
